Measurements reported in PubChem BioAssay (NCI).
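Cells were grown in 96-well plates and exposed to each compound for 48 hours at five concentrations; endpoints were interpolated linearly between bracketing concentrations, or set to the highest concentration if not reached. Here, GI50 denotes the concentration required for 50% inhibition of growth. TGI: concentration producing complete growth inhibition.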

How the values were obtained:
Experiment in all cases: NCI anticancer screen, dose series, 48 h
RXF 393 renal = test system: RXF 393 renal
SK-MEL-5 melanoma = test system: SK-MEL-5 melanoma
OVCAR-8 ovarian = test system: OVCAR-8 ovarian
SW-620 colon = test system: SW-620 colon
NCI-H23 lung = test system: NCI-H23 lung
A549 NSCLC = test system: A549 NSCLC
NCI/ADR-RES ovarian = test system: NCI/ADR-RES ovarian
T-47D breast = test system: T-47D breast
SNB-19 CNS = test system: SNB-19 CNS
MALME-3M melanoma = test system: MALME-3M melanoma

| SMILES | GI50 (RXF 393 renal) | TGI (RXF 393 renal) | GI50 (SK-MEL-5 melanoma) | TGI (SK-MEL-5 melanoma) | GI50 (OVCAR-8 ovarian) | TGI (OVCAR-8 ovarian) | GI50 (SW-620 colon) | TGI (SW-620 colon) | GI50 (NCI-H23 lung) | TGI (NCI-H23 lung) | GI50 (A549 NSCLC) | TGI (A549 NSCLC) | GI50 (NCI/ADR-RES ovarian) | TGI (NCI/ADR-RES ovarian) | GI50 (T-47D breast) | TGI (T-47D breast) | GI50 (SNB-19 CNS) | TGI (SNB-19 CNS) | GI50 (MALME-3M melanoma) | TGI (MALME-3M melanoma) |
| --- | --- | --- | --- | --- | --- | --- | --- | --- | --- | --- | --- | --- | --- | --- | --- | --- | --- | --- | --- | --- |
| N#Cc1c2ccccc2c2n1-c1ccccc1OC(c1ccccc1)C2=O (configuration not stated) | 3.15 µM | 9.55 µM | 1.86 µM | 3.87 µM | 3.26 µM | 15.7 µM | 3.9 µM | 16.7 µM | 2.95 µM | 15 µM | 3.11 µM | 29.3 µM | 3.2 µM | 12 µM | 3.28 µM | 15.6 µM | 4.25 µM | > 100 µM | 11.7 µM | 30.6 µM |
| ON(CCc1ccncc1)Cc1ccccc1 | – | > 100 µM | – | > 100 µM | – | > 100 µM | – | > 100 µM | – | > 100 µM | – | > 100 µM | – | > 100 µM | – | > 100 µM | – | > 100 µM | – | > 100 µM |
| C=C(C)C(=O)OC1CC2(C)OC2CC(OC(C)=O)/C(C)=C/C2OC(=O)C(=C)C21 (configuration not stated) | – | 4.64 µM | – | 21.1 µM | – | 18.7 µM | – | 6.98 µM | – | 19.4 µM | – | 42.5 µM | – | 18.2 µM | – | 14.4 µM | – | 28.7 µM | – | 3.23 µM |
| CN(C)c1ccc(C(=O)c2ccc(N(C)C)c(N)c2)cc1N | 3.76 µM | 18.4 µM | 2.7 µM | 34.2 µM | 8.99 µM | > 100 µM | 1.14 µM | > 100 µM | 9.75 µM | > 80.8 µM | 8.4 µM | > 100 µM | 1.13 µM | 12.3 µM | 4.3 µM | > 46.1 µM | 16.7 µM | > 39.3 µM | – | > 100 µM |
| COc1ccc(C(O)c2cc3c(N)c(C(=O)Nc4cccc(Cl)c4C)sc3nc2C)cc1 (configuration not stated) | 0.709 µM | 1.42 µM | 0.874 µM | 1.58 µM | 0.948 µM | 2.17 µM | 0.831 µM | 1.65 µM | 0.926 µM | 1.8 µM | 0.933 µM | 2.02 µM | 0.915 µM | 1.84 µM | 0.953 µM | 2.2 µM | 0.943 µM | 1.92 µM | 0.809 µM | 1.51 µM |
| CN(C)C(=S)NN=C(c1ccccn1)c1ccccn1 | 0.138 µM | 13.8 µM | 0.0629 µM | 3.45 µM | 0.0361 µM | 27 µM | < 0.0115 µM | > 40.2 µM | < 0.01 µM | 16.3 µM | 0.101 µM | > 42.8 µM | < 0.0208 µM | 4.98 µM | – | > 44.9 µM | 3.13 µM | > 100 µM | < 0.0331 µM | 0.503 µM |
| CNc1nc(C)c(-c2nc(Nc3cccc(S(N)(=O)=O)c3)ncc2F)s1 | 0.0176 µM | 0.0301 µM | 0.0296 µM | 0.639 µM | 0.0394 µM | 15.9 µM | 0.0283 µM | 14.7 µM | 0.0432 µM | 0.171 µM | 0.0874 µM | 15.2 µM | 0.0886 µM | 9.17 µM | 0.0274 µM | 0.472 µM | 0.0273 µM | 14.1 µM | 0.0797 µM | 0.187 µM |
| CCCCCCCCCCCCCC[P+](CCCCCC)(CCCCCC)CCCCCC | 0.141 µM | 1.4 µM | 0.0829 µM | 0.258 µM | 0.0856 µM | 1.78 µM | 0.0341 µM | 1.15 µM | 0.083 µM | 1.4 µM | 0.292 µM | > 100 µM | 0.73 µM | > 100 µM | 0.0501 µM | – | 0.0688 µM | > 100 µM | 0.0271 µM | 0.0721 µM |
| O=C(Nc1c(Cl)cc([N+](=O)[O-])cc1Cl)C(=O)C1C(=O)NC(=S)NC1=O | – | > 100 µM | – | > 100 µM | – | > 100 µM | – | > 100 µM | – | > 100 µM | – | > 100 µM | – | > 100 µM | – | > 100 µM | – | > 100 µM | – | > 100 µM |
| O=C(Nc1ccc(Cl)cc1)c1cc2c(cc1O)[nH]c1ccccc12 | 5.14 µM | 20.6 µM | 1.74 µM | 3.41 µM | 3.25 µM | 12.9 µM | 3.4 µM | 13.4 µM | 2.54 µM | 9.68 µM | 2.85 µM | 10.3 µM | 2.87 µM | 8.93 µM | 2.37 µM | 6.78 µM | 3.43 µM | 30.6 µM | 2.45 µM | 5.76 µM |
| O=Nc1c(-c2cccc([N+](=O)[O-])c2)nc2cnccn12 | – | > 100 µM | – | > 100 µM | – | 53.8 µM | – | 35.7 µM | – | 36.1 µM | – | 83.8 µM | – | 54.5 µM | – | 49.6 µM | – | > 100 µM | – | 56.5 µM |
| Nc1nc2c(c3ncccc13)C(c1ccc(Cl)c(Cl)c1)Cc1ncccc1-2 (configuration not stated) | 1.52 µM | 5.25 µM | 3.99 µM | 14.8 µM | 4.24 µM | 36.5 µM | 3.5 µM | 19 µM | 5.59 µM | 21.6 µM | 4.24 µM | 15.3 µM | 3.31 µM | 16.1 µM | 2.39 µM | 13.4 µM | 3.77 µM | 14.4 µM | 8.94 µM | 26.3 µM |
| O=c1[nH]cnc2c1nnn2C1OC(CO)C(O)C1O (configuration not stated) | 1.62 µM | 32.2 µM | 5.59 µM | 30.3 µM | 0.683 µM | > 100 µM | 1.69 µM | > 100 µM | 4.25 µM | > 100 µM | 29.1 µM | > 100 µM | 0.835 µM | > 31.4 µM | 0.736 µM | > 100 µM | 19.6 µM | > 100 µM | 2.64 µM | > 59 µM |
